Measurements from patent US20240207415A1, “BI-FUNCTIONAL COMPOUNDS AND METHODS FOR TARGETED UBIQUITINATION OF ANDROGEN RECEPTOR” (MONTELINO THERAPEUTICS, INC., priority 2022, published 2024).

The molecules below were run on 22Rv1-Enz^R (assay: 22Rv1-Enz^R cell proliferation assay). Settings: human prostate cancer cell line 22Rv1-Enz^R; 6-day culture, cell media changed every 24 hours; half maximal growth inhibition constant; read-out: 22Rv1-Enz^R proliferation assay GIC50.
Type: cell-based
Protocol: The human prostate cancer cell line, 22Rv1 has been reported to express a high level of AR-V7. According to one procedure, 22Rv1 is seeded at 50,000 cells/well on a 24-well plate in quadruplicate and treated with test compounds in concentrations ranging up to 20 μM for four days. Standard culture media is RPMI-1640 supplemented with 10% fetal bovine serum. The test compound initially is dissolved in DMSO at 50 mM. This stock solution is then diluted as needed for the indicated concentrations. At the end of the four-day period, cells are harvested using 1% trypsin and counted using an automated cell counter.
Selected compounds may be tested in the human prostate cancer cell line, 22Rv1-Enz^R as described in Geun Taek Lee et al., Molecular Cancer Therapeutics, 20:490-9 (2021). These procedures are similar to that described in Experimental Example 1, above, except that the assay conditions are a 6-day culture with cell media changed every 24 hours.
In the following Table (half maximal growth inhibition constant, GIC50): (*)-GIC50 2-10 μM; (++)-GIC50 1.0-2.0 μM; (+++)-GIC50<1.0 μM.
With `O=C(COc1ccc(C2CCC(=O)NC2=O)cc1)NCCCCCCCCNC(=O)COc1c(-c2csc(N3CCOCC3)n2)ccc(F)c1F` (stereo not drawn) [Example 1, 2-(2,3-Difluoro-6-(2-morpholinothiazol-4-yl)phenoxy)-N-(8-(2-(4-(2,6-dioxopiperidin-3-yl)phenoxy)acetamido)octyl)acetamide] the IC50 was under 1000 nM.
With `O=C1CCC(c2ccc(OCC(=O)N3CCN(CCOCCOc4c(-c5csc(N6CCOCC6)n5)ccc(F)c4F)CC3)cc2)C(=O)N1` (stereo not drawn) [Example 2, 3-(4-(2-(4-(2-(2-(2,3-Difluoro-6-(2-morpholinothiazol-4-yl)phenoxy)ethoxy)ethyl)piperazin-1-yl)-2-oxoethoxy)phenyl)piperidine-2,6-dione] the IC50 was 1000 to 2000 nM.
In the case of `O=C(COc1ccc(C2CCC(=O)NC2=O)cc1)NCCOCCOCCOCCOc1c(-c2csc(N3CCOCC3)n2)ccc(F)c1F` (stereo not drawn) [Example 3, N-(2-(2-(2-(2-(2,3-Difluoro-6-(2-morpholinothiazol-4-yl)phenoxy)ethoxy)ethoxy)ethoxy)ethyl)-2-(4-(2,6-dioxopiperidin-3-yl)phenoxy)acetamide], the IC50 is reported as 2000 to 10000 nM.
With `O=C(CCCCCCCCOc1c(-c2csc(N3CCOCC3)n2)ccc(F)c1F)NCCCCC(=O)Nc1ccc(C2CCC(=O)NC2=O)cc1` (stereo not drawn) [Example 4, 9-(2,3-difluoro-6-(2-morpholinothiazol-4-yl)phenoxy)-N-(5-((4-(2,6-dioxopiperidin-3-yl)phenyl)amino)-5-oxopentyl)nonanamide] the IC50 was under 1000 nM.
In the case of `O=C(CCCCCCCCOc1cccc(-c2csc(N3CCOCC3)n2)c1)NCCCCC(=O)Nc1ccc(C2CCC(=O)NC2=O)cc1` (stereo not drawn) [Example 6, N-(5-((4-(2,6-dioxopiperidin-3-yl)phenyl)amino)-5-oxopentyl)-9-(3-(2morpholinothiazol-4-yl)phenoxy)nonanamide], the IC50 is reported as 2000 to 10000 nM.
`O=C(CCCCCCCCOc1ccc(-c2csc(N3CCOCC3)n2)cc1)NCCCCC(=O)Nc1ccc(C2CCC(=O)NC2=O)cc1` (stereo not drawn) [Example 7, N-(5-((4-(2,6-Dioxopiperidin-3-yl)phenyl)amino)-5-oxopentyl)-9-(4-(2morpholinothiazol-4-yl)phenoxy)nonanamide] was tested, and the IC50 was 1000 to 2000 nM.
With `O=C1CCC(c2ccc(OCCOCCOCCn3cc(CCOc4c(-c5csc(N6CCOCC6)n5)ccc(F)c4F)nn3)cc2)C(=O)N1` (stereo not drawn) [Example 10, 3-(4-(2-(2-(2-(4-(2-(2,3-difluoro-6-(2-morpholinothiazol-4-yl)phenoxy)ethyl)-1H-1,2,3-triazol-1-yl)ethoxy)ethoxy)ethoxy)phenyl)piperidine-2,6-dione] the IC50 was 2000 to 10000 nM.
Work on `O=C1CCC(c2ccc(OCCOCCOCCOCCn3cc(CCOc4c(-c5csc(N6CCOCC6)n5)ccc(F)c4F)nn3)cc2)C(=O)N1` (stereo not drawn) [Example 11, 3-(4-(2-(2-(2-(2-(4-(2-(2,3-difluoro-6-(2-morpholinothiazol-4-yl)phenoxy)ethyl)-1H-1,2,3-triazol-1-yl)ethoxy)ethoxy)ethoxy)ethoxy)phenyl)piperidine-2,6-dione] yielded an IC50 of 1000 to 2000 nM.
`O=C1CCC(c2ccc(NC(=O)CCCCCCCCOc3c(-c4csc(N5CCOCC5)n4)ccc(F)c3F)cc2)C(=O)N1` (stereo not drawn) [Example 12, 9-(2,3-difluoro-6-(2-morpholinothiazol-4-yl)phenoxy)-N-(4-(2,6-dioxopiperidin-3-yl)phenyl)nonanamide] showed an IC50 of 2000 to 10000 nM.
For `O=C(CCCCCCCCOc1c(-c2csc(N3CCOCC3)n2)ccc(F)c1F)NCCCCCCC(=O)Nc1ccc(C2CCC(=O)NC2=O)cc1` (stereo not drawn) [Example 13, 9-(2,3-difluoro-6-(2-morpholinothiazol-4-yl)phenoxy)-N-(7-((4-(2,6-dioxopiperidin-3-yl)phenyl)amino)-7-oxoheptyl)nonanamide], the IC50 was 1000 to 2000 nM.
`O=C(CCCCCCCCOc1c(-c2csc(N3CCOCC3)n2)ccc(F)c1F)NCCOCCOCC(=O)Nc1ccc(C2CCC(=O)NC2=O)cc1` (stereo not drawn) [Example 14, 9-(2,3-difluoro-6-(2-morpholinothiazol-4-yl)phenoxy)-N-(2-(2-(2-((4-(2,6-dioxopiperidin-3-yl)phenyl)amino)-2-oxoethoxy)ethoxy)ethyl)nonanamide] gave an IC50 of 1000 to 2000 nM.
`O=C(CCCCCCCCOc1c(-c2csc(N3CCOCC3)n2)ccc(F)c1F)NCCCCNC(=O)c1ccc(N2CCC(=O)NC2=O)cc1` [Example 15, N-(4-(9-(2,3-difluoro-6-(2-morpholinothiazol-4-yl)phenoxy)nonanamido)butyl)-4-(2,4-dioxotetrahydropyrimidin-1(2H)-yl)benzamide] showed an IC50 of 2000 to 10000 nM.
